How the values were obtained:
human CRF1 receptors = target: T1, human CRF1 receptors (Homo sapiens, UniProt P34998); assay: hCRF1 binding assay, 125I-o-CRF competition, Y79 cell membranes; conditions: native human CRF1 receptors, Y79 retinoblastoma cells; n=3; read-out: IC50, inhibition of 125I-o-CRF binding to Y79 membrane
T1 construct: the native CRF1 receptors present on the human retinoblastoma cell line Y79; endogenous in cells; host or cells: Y79 human retinoblastoma cells
T1 sequence (P34998 24-415): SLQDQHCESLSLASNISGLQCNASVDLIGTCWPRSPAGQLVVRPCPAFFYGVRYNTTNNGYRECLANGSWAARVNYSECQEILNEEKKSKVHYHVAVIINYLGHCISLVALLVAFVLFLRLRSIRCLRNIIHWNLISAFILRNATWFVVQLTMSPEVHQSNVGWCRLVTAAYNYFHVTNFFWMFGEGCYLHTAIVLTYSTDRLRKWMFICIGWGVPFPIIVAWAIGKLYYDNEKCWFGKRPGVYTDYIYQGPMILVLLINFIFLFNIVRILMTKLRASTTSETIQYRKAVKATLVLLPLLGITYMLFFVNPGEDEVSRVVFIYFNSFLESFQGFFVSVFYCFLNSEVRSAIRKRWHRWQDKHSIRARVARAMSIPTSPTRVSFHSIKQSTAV
Method: hCRF1 Binding Assay. Membranes were prepared for binding using Y79 cells, a human retinoblastoma line that natively expresses human CRF1 receptors [Hauger, R., et al., Journal of Neurochemistry 68: 2308-2316, (1997)]. Briefly, cells were grown and collected then the pellet homogenized in assay buffer containing 50 mM Hepes (pH 7.0 at 23° C.), 10 mM MgCl2, 2 mM EGTA, 1 μg/ml aprotinin, 1 μg/ml leupeptin, 1 μg/ml pepstatin A, 0.005% Triton X-100, 10 U/ml bacitracin and 0.1% ovalbumin. The suspension was centrifuged at 32000×g for 30 minutes. The resulting supernatant was discarded and the pellet resuspended by homogenization in assay buffer and centrifuged again. The supernatant was discarded and the pellet resuspended by homogenization in assay buffer and aliquots frozen at −70° C. On the day of the experiment aliquots were thawed quickly and 25 μg/well added to 150 pM ^125I-ovine-CRF and drugs in a total volume of 100 μl assay buffer. The assay mixture was incubated for 2 hr at 21° C. Bound and free radioligand were then separated by rapid filtration using glass fiber filters (Whatman GF/B, pretreated with 0.3% PEI) on a Brandel Cell Harvester. […] Filters were then counted in a Wallac Wizard gamma counter. IC50 values were determined in a five point (five drug concentrations) competition assay using non-linear regression by Microsoft Excel-fit. […]

Male Sprague-Dawley rats = assay: Situational anxiety behavioral model in rats (latency to exit dark cylinder into open field); format: in vivo, rat
Source text: Situational Anxiety Behavioral Studies in Rats. (S)-4-(1-Cyclopropyl-2-methoxyethyl)-6-(6-(difluoromethoxy)-2,5-dimethylpyridin-3-ylamino)-5-oxo-4,5-dihydropyrazine-2-carbonitrile has been evaluated in a situational anxiety model to evaluate its anxiolytic potential. In this model, rats are placed in a small, darkened chamber located in an unfamiliar open field. Vehicle-treated rats spend most of the time within the chamber, consistent with a heightened state of anxiety [Takahashi L. K. et al, Behav. Neurosci. 103: 648-654, (1989)]. This model is sensitive to anxiolytics, including benzodiazepines such as chlordiazepoxide [Yang X-M. et al, J. Pharmacol. Exp. Ther. 255: 1064-1070, (1990)]. In addition, previous CRF1 antagonists, such as DMP696 and DMP904 [McElroy J. F. et al., Psychopharmacology 165: 86-92, (2002); Lelas S. et al., J. Pharmacol. Exp. Ther. 309: 293-302, (2004)] were effective this model. The effects of (S)-4-(1-cyclopropyl-2-methoxyethyl)-6-(6-(difluoromethoxy)-2,5-dimethylpyridin-3-ylamino)-5-oxo-4,5-dihydropyrazine-2-carbonitrile were compared with those of anxiolytic standards chlordiazepoxide (Librium®) and diazepam (Valium®) in this model. Male Sprague-Dawley rats weighing 180-300 g were purchased from Charles River Laboratories (Wilmington, Mass.). The rats were housed individually in suspended wire cages in colony rooms maintained at a constant temperature (21±2° C.) and humidity (50±10%). The rooms were illuminated 12 hours per day. The rats had ad libitum access to food and water throughout the studies. Behavioral studies were conducted between 0600 and 1300 h. Animals were maintained in accordance with the guidelines of the Animal Care and Use Committee of the Bristol-Myers Squibb Company, the “Guide for Care and Use of Laboratory Animals” (Institute of Animal Laboratory Resources, 1996), and the guidelines published in the National Institutes of Health Guide for the Care and Use of Laboratory Animals. Research protocols were approved by the Bristol-Myers Squibb Company Animal Care and Use Committee. All compounds were prepared in 0.25% methylcellulose and administered PO. Chlordiazepoxide, diazepam, and desipramine were purchased from Sigma Chemical Company. (S)-4-(1-Cyclopropyl-2-methoxyethyl)-6-(6-(difluoromethoxy)-2,5-dimethylpyridin-3-ylamino)-5-oxo-4,5-dihydropyrazine-2-carbonitrile was dosed in the volume of 2 ml/kg. All standards were dosed in the volume of 2 ml/kg. For all tests, data were analyzed by analysis of variance, followed by Dunnett's t-tests for individual comparisons. The significance value was set at 0.05. The data are presented in the text and figures as mean±standard error of the mean (SEM). Male Sprague-Dawley rats were habituated to handling and dosing the day before testing. On the day of testing, all compounds were administered PO by gavage 60 minutes before behavioral testing. To initiate testing, each animal was placed in a small galvanized steel cylinder (14 cm length, 10 cm diameter), which was placed lengthwise against one wall of an illuminated open field (106 cm length×92 cm width×50 cm height). The open field was illuminated by a 60-W incandescent bulb and illumination was titrated by a powerstat transformer to a 30-lux reading at the entrance to the cylinder. Behavior was assessed for 15 minutes by a trained observer unaware of treatment assignment. The latency of the animal to exit the cylinder, defined by the placement of all four paws into the open field, and explore the open field was recorded (in seconds). […] The Plexiglas chamber and the cylinder were cleaned with 1.0% glacial acetic acid between animals to prevent olfactory cues from influencing the behavior of subsequently tested animals. Following behavioral testing, animals were sacrificed and plasma samples and brains were taken for analysis of plasma exposure and central receptor occupancy.

Structure (SMILES) | IC50 (human CRF1 receptors) | effect on exit latency (Male Sprague-Dawley rats; 0.56 mg/kg PO, dose-response study) | effect on exit latency (Male Sprague-Dawley rats; 1.0 mg/kg PO, dose-response study) | significant decrease of exit latency (Male Sprague-Dawley rats; 1.0 mg/kg PO, single-dose study) | decrease in exit latency relative to vehicle-treated controls (Male Sprague-Dawley rats; 1.8 mg/kg PO, dose-response study) | decrease in exit latency (Male Sprague-Dawley rats; 1.8 mg/kg PO, single-dose study) | decrease in exit latency relative to vehicle-treated controls (Male Sprague-Dawley rats; 3.0 mg/kg PO, dose-response study) | decrease in exit latency (Male Sprague-Dawley rats; 3.0 mg/kg PO, single-dose study) | lowest effective dose (decrease of exit latency) (Male Sprague-Dawley rats; PO, 60 minutes before testing) | anxiolytic-like effects, potency compared with standards (Male Sprague-Dawley rats; PO, summary) | decrease in exit latency (Male Sprague-Dawley rats; 10 mg/kg, positive control, dose-response study) | decrease in exit latency (Male Sprague-Dawley rats; 10 mg/kg, positive control, first single-dose study) | decrease in exit latency (Male Sprague-Dawley rats; 10 mg/kg, positive control, second single-dose study) | decrease in exit latency (Male Sprague-Dawley rats; 10 mg/kg, positive control, third single-dose study)
COC[C@H](C1CC1)n1cc(C#N)nc(Nc2cc(C)c(OC(F)F)nc2C)c1=O [(S)-4-(1-cyclopropyl-2-methoxyethyl)-6-(6-(difluoromethoxy)-2,5-dimethylpyridin-3-ylamino)-5-oxo-4,5-dihydropyrazine-2-carbonitrile] | 1.81 ± 0.46 nM | did not significantly alter exit latency | did not significantly alter exit latency | but not of 1.0 mg/kg | 60% | 53% | 56% | 51% | 1.8 mg/kg | comparable potency to the benzodiazepines diazepam and chlordiazepoxide | – | – | – | –
COCC(COC)Nc1nc(C)nc2c(-c3ccc(Cl)cc3Cl)c(C)nn12 [DMP696] | 1.71 ± 0.53 nM | – | – | – | – | – | – | – | – | – | 62% | 57% | 74% | 81%
